Source: patent US11214594B2, “Antimicrobial peptide having synergistic antibacterial effect with antibiotics on multidrug resistant bacteria, and use thereof” (priority 2016, dated 2022)
Like-named read-outs stand apart in the source and are kept apart here. Where a SMILES comes first, the peptide text is derived from it. [ ]: non-standard residue; d: D form.

Tests used:
MDREC 1238 = type: cell-based, Escherichia coli; conditions: MDREC 1238; agent alone
Procedure, shortened: (§1)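 MIC read-out = lowest peptide level with no bacterial proliferation. Strains diluted in MH medium to 2×10^6 CFU; peptide twofold serial dilutions in MH added 1:1 in microtiter wells.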

MDRST 8007 = experiment: Minimal inhibitory concentration (MIC), single agent; type: cell-based, Salmonella typhimurium; conditions: agent alone
Procedure, shortened: as §1

MDRPA 2003 = type: cell-based, Pseudomonas aeruginosa; conditions: MDRPA 2003; agent alone
Procedure, shortened: as §1

MDRPA 2002 = type: cell-based, Pseudomonas aeruginosa; conditions: MDRPA 2002; agent alone
Procedure, shortened: as §1

MDREC 1229 [1] = experiment: MIC of antibiotic during combined treatment with antimicrobial peptide; type: cell-based, Escherichia coli
Procedure, shortened: (§2)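 Antibiotic MIC came from antibiotic dilutions added to bacteria (2×10^6 CFU/ml, MH medium) already combined with peptide serially diluted 2:1 from its own MIC. Swapping the roles of the two agents gave the peptide MIC.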

MRSA 3114 = type: cell-based, Staphylococcus aureus; conditions: MRSA 3114; agent alone
Procedure, shortened: as §1

MRSA 3126 = type: cell-based, Staphylococcus aureus; conditions: MRSA 3126; agent alone
Procedure, shortened: as §1

E. coli = type: cell-based, Escherichia coli; conditions: E. coli
Procedure, shortened: as §2

MDREC 1229 [2] = type: cell-based, Escherichia coli
Procedure, shortened: as §2

S. typhimurium = experiment: microbe, parasite or virus in culture; type: cell-based, Salmonella typhimurium
Procedure, shortened: as §1

P. aeruginosa = experiment: microbe, parasite or virus in culture; type: cell-based, Pseudomonas aeruginosa
Procedure, shortened: as §1

B. subtilis = experiment: microbe, parasite or virus in culture; type: cell-based, Bacillus subtilis
Procedure, shortened: as §1

MDRAB 12035 [3] = experiment: microbe, parasite or virus in culture; type: cell-based, Acinetobacter baumannii; conditions: MDRAB 12035
Procedure, shortened: as §1

A. baumannii [4] = experiment: microbe, parasite or virus in culture; type: cell-based, Acinetobacter baumannii
Procedure, shortened: as §1

MDRAB 12035 [5] = experiment: MIC of antibiotic during combined treatment with antimicrobial peptide; type: cell-based, Acinetobacter baumannii
Procedure, shortened: as §2

MDRAB 12035 [6] = experiment: MIC of antimicrobial peptide during combined treatment with antibiotic; type: cell-based, Acinetobacter baumannii
Procedure, shortened: as §2

A. baumannii [7] = experiment: as above; type: cell-based, Acinetobacter baumannii
Procedure, shortened: as §2

S. aureus = experiment: microbe, parasite or virus in culture; type: cell-based, Staphylococcus aureus
Procedure, shortened: as §1

MDRAB 12036 = type: cell-based, Acinetobacter baumannii; conditions: MDRAB 12036; agent alone
Procedure, shortened: as §1

S. epidermidis = experiment: microbe, parasite or virus in culture; type: cell-based, Staphylococcus epidermidis
Procedure, shortened: as §1

[8] = peptide treatment concentration 1 μg/ml
[9] = peptide treatment concentration 2 μg/ml
[10] = peptide treatment concentration 4 μg/ml
[11] = peptide treatment concentration 6 μg/ml
[12] = peptide treatment concentration 8 μg/ml
[13] = peptide treatment concentration 16 μg/ml
[14] = peptide treatment concentration 32 μg/ml
[15] = peptide treatment concentration 64 μg/ml
[16] = linezolid 64 μg/ml (Conc./MIC 1/8)
[17] = linezolid 512 μg/ml (Conc./MIC 1)
[18] = vancomycin 512 μg/ml (Conc./MIC 1/2)
[19] = vancomycin 1024 μg/ml (Conc./MIC 1)
[20] = erythromycin 4 μg/ml (Conc./MIC 1/8)
[21] = erythromycin 8 μg/ml (Conc./MIC 1/4)
[22] = erythromycin 16 μg/ml (Conc./MIC 1/2)
[23] = erythromycin 32 μg/ml (Conc./MIC 1)

CC[C@H](C)[C@H](NC(=O)[C@H](CCCCN)NC(=O)[C@H](Cc1c[nH]c2ccccc12)NC(=O)[C@@H](N)CCCNC(=N)N)C(=O)N[C@@H](Cc1ccccc1)C(=O)N[C@@H](CCCCN)C(=O)N[C@@H](CCCCN)C(=O)N[C@H](C(=O)N[C@H](CC(C)C)C(=O)N[C@@H](CCCCN)C(=O)N[C@@H](CC(C)C)C(=O)N[C@@H](CC(C)C)C(=O)N[C@@H](Cc1c[nH]cn1)C(=O)N[C@@H](CCCCN)C(=O)N[C@@H](Cc1ccccc1)C(=O)N[C@@H](CCCCN)C(=O)N[C@@H](CCCCN)C(=O)N[C@@H](Cc1ccccc1)C(N)=O)[C@@H](C)CC [PapMA-21, RWK IFK KIl KLL HKF KKF-NH2] (H-RWKIFKKI[dL]KLLHKFKKF-NH2; N-terminus assumed)
at least twice as high: Antibacterial activity relative to PapMA-1 (A. baumannii [4]; A. baumannii and S. typhimurium)
64 µg/mL: Minimal inhibitory concentration MIC (MDRST 8007) | Antibiotic MIC, Erythromycin (MDREC 1229 [1]; [9]) | Antibiotic MIC, Linezolid (MDREC 1229 [1]; [11]) | Linezolid MIC during combined treatment with peptide (MDRAB 12035 [5]; [10]) | Vancomycin MIC during combined treatment with peptide (MDRAB 12035 [5]; [11])
>128 µg/mL: Antibiotic MIC, Linezolid (MDREC 1229 [1]; [8]) | Antibiotic MIC, Vancomycin (MDREC 1229 [1]; [8]) | Antibiotic MIC, Linezolid (MDREC 1229 [1]; [9]) | Antibiotic MIC, Vancomycin (MDREC 1229 [1]; [9]) | Antibiotic MIC, Vancomycin (MDREC 1229 [1]; [10]) | Antibiotic MIC, Vancomycin (MDREC 1229 [1]; [11]) | Minimal inhibitory concentration MIC (MRSA 3114) | Minimal inhibitory concentration MIC (MRSA 3126) | Minimal inhibitory concentration MIC (B. subtilis) | Linezolid MIC during combined treatment with peptide (MDRAB 12035 [5]; [8]) | Vancomycin MIC during combined treatment with peptide (MDRAB 12035 [5]; [8]) | Linezolid MIC during combined treatment with peptide (MDRAB 12035 [5]; [9]) | Vancomycin MIC during combined treatment with peptide (MDRAB 12035 [5]; [9]) | Minimal inhibitory concentration MIC (S. aureus) | Minimal inhibitory concentration MIC (S. epidermidis)
4 µg/mL: Antibiotic MIC, Erythromycin (MDREC 1229 [1]; [12]) | Peptide MIC (E. coli; with Erythromycin 16 μg/ml (Conc./MIC 1/8)) | Peptide MIC (E. coli; with Linezolid 64 μg/ml (Conc./MIC 1/4)) | Peptide MIC (E. coli; with Vancomycin […] (Conc./MIC 1/4)) | Peptide MIC during treatment with antibiotic (MDREC 1229 [2]; linezolid […] (Conc./MIC 1/4)) | Peptide MIC during treatment with antibiotic (MDREC 1229 [2]; vancomycin […] (Conc./MIC 1/4)) | Erythromycin MIC during combined treatment with peptide (MDRAB 12035 [5]; [11]) | Peptide MIC during treatment with erythromycin (MDRAB 12035 [6]; [22]) | Peptide MIC during treatment with linezolid (MDRAB 12035 [6]; [16]) | Peptide MIC during treatment with linezolid (MDRAB 12035 [6]; linezolid […] (Conc./MIC 1/4)) | Peptide MIC during treatment with vancomycin (MDRAB 12035 [6]; vancomycin […] (Conc./MIC 1/4)) | Peptide MIC during treatment with vancomycin (MDRAB 12035 [6]; vancomycin […] (Conc./MIC 1/8)) | Peptide MIC during treatment with erythromycin (A. baumannii [7]; [21]) | Peptide MIC during treatment with linezolid (A. baumannii [7]; linezolid 32 μg/ml (Conc./MIC 1/8)) | Peptide MIC during treatment with linezolid (A. baumannii [7]; linezolid 64 μg/ml (Conc./MIC 1/4)) | Peptide MIC during treatment with vancomycin (A. baumannii [7]; vancomycin […] (Conc./MIC 1/8))
16 µg/mL: Antibiotic MIC, Linezolid (MDREC 1229 [1]; [13]) | Antibiotic MIC, Vancomycin (MDREC 1229 [1]; [13]) | Erythromycin MIC during combined treatment with peptide (MDRAB 12035 [5]; [10]) | Linezolid MIC during combined treatment with peptide (MDRAB 12035 [5]; [12]) | Vancomycin MIC during combined treatment with peptide (MDRAB 12035 [5]; [13])
32 µg/mL: Minimal inhibitory concentration MIC (MDREC 1238) | Minimal inhibitory concentration MIC (MDRPA 2003) | Minimal inhibitory concentration MIC (MDRPA 2002) | Antibiotic MIC, Erythromycin (MDREC 1229 [1]; [10]) | Antibiotic MIC, Linezolid (MDREC 1229 [1]; [12]) | Minimal inhibitory concentration MIC (S. typhimurium) | Minimal inhibitory concentration MIC (P. aeruginosa) | Minimal inhibitory concentration MIC (MDRAB 12035 [3]; agent alone) | Peptide MIC, peptide alone (MDRAB 12035 [3]; no antibiotic) | Minimal inhibitory concentration MIC (A. baumannii [4]) | Peptide MIC, peptide alone (A. baumannii [4]) | Erythromycin MIC during combined treatment with peptide (MDRAB 12035 [5]; [8]) | Erythromycin MIC during combined treatment with peptide (MDRAB 12035 [5]; [9]) | Linezolid MIC during combined treatment with peptide (MDRAB 12035 [5]; [11]) | Vancomycin MIC during combined treatment with peptide (MDRAB 12035 [5]; [12]) | Minimal inhibitory concentration MIC (MDRAB 12036)
2 µg/mL: Antibiotic MIC, Erythromycin (MDREC 1229 [1]; [13]) | Peptide MIC (E. coli; with Erythromycin 32 μg/ml (Conc./MIC 1/4)) | Peptide MIC (E. coli; with Linezolid […] (Conc./MIC 1/2)) | Peptide MIC (E. coli; with Vancomycin 512 μg/ml (Conc./MIC 1/2)) | Peptide MIC during treatment with antibiotic (MDREC 1229 [2]; erythromycin 32 μg/ml (Conc./MIC 1/8)) | Peptide MIC during treatment with antibiotic (MDREC 1229 [2]; erythromycin 64 μg/ml (Conc./MIC 1/4)) | Peptide MIC during treatment with antibiotic (MDREC 1229 [2]; [18]) | Peptide MIC during treatment with antibiotic (MDREC 1229 [2]; [19]) | Peptide MIC during treatment with vancomycin (MDRAB 12035 [6]; [18]) | Peptide MIC during treatment with erythromycin (A. baumannii [7]; [22])
8 µg/mL: Antibiotic MIC, Erythromycin (MDREC 1229 [1]; [11]) | Peptide MIC (E. coli; with Linezolid 32 μg/ml (Conc./MIC 1/8)) | Peptide MIC (E. coli; with Vancomycin […] (Conc./MIC 1/8)) | Peptide MIC during treatment with antibiotic (MDREC 1229 [2]; [16]) | Peptide MIC during treatment with antibiotic (MDREC 1229 [2]; vancomycin […] (Conc./MIC 1/8)) | Linezolid MIC during combined treatment with peptide (MDRAB 12035 [5]; [13]) | Peptide MIC during treatment with erythromycin (MDRAB 12035 [6]; [20]) | Peptide MIC during treatment with erythromycin (MDRAB 12035 [6]; [21]) | Peptide MIC during treatment with erythromycin (A. baumannii [7]; [20])
0.25 µg/mL: Peptide MIC during treatment with vancomycin (A. baumannii [7]; [18])
0.5 µg/mL: Erythromycin MIC during combined treatment with peptide (MDRAB 12035 [5]; [13]) | Peptide MIC during treatment with vancomycin (A. baumannii [7]; vancomycin […] (Conc./MIC 1/4))
1 µg/mL: Peptide MIC (E. coli; with Erythromycin 64 μg/ml (Conc./MIC 1/2)) | Peptide MIC during treatment with antibiotic (MDREC 1229 [2]; erythromycin […] (Conc./MIC 1/2)) | Peptide MIC during treatment with antibiotic (MDREC 1229 [2]; linezolid […] (Conc./MIC 1/2)) | Erythromycin MIC during combined treatment with peptide (MDRAB 12035 [5]; [12]) | Peptide MIC during treatment with linezolid (MDRAB 12035 [6]; linezolid […] (Conc./MIC 1/2)) | Peptide MIC during treatment with vancomycin (MDRAB 12035 [6]; [19]) | Peptide MIC during treatment with linezolid (A. baumannii [7]; linezolid […] (Conc./MIC 1/2))
128 µg/mL: Antibiotic MIC, Erythromycin (MDREC 1229 [1]; [8]) | Antibiotic MIC, Linezolid (MDREC 1229 [1]; [10]) | Antibiotic MIC, Vancomycin (MDREC 1229 [1]; [12]) | Vancomycin MIC during combined treatment with peptide (MDRAB 12035 [5]; [10])
0 µg/mL: Antibiotic MIC, Erythromycin (MDREC 1229 [1]; [14]) | Antibiotic MIC, Linezolid (MDREC 1229 [1]; [14]) | Antibiotic MIC, Vancomycin (MDREC 1229 [1]; [14]) | Antibiotic MIC, Erythromycin (MDREC 1229 [1]; [15]) | Antibiotic MIC, Linezolid (MDREC 1229 [1]; [15]) | Antibiotic MIC, Vancomycin (MDREC 1229 [1]; [15]) | Peptide MIC (E. coli; with Erythromycin […] (Conc./MIC 1)) | Peptide MIC (E. coli; with Linezolid […] (Conc./MIC 1)) | Peptide MIC (E. coli; with Vancomycin 1024 μg/ml (Conc./MIC 1)) | Peptide MIC during treatment with antibiotic (MDREC 1229 [2]; erythromycin […] (Conc./MIC 1)) | Peptide MIC during treatment with antibiotic (MDREC 1229 [2]; [17]) | Erythromycin MIC during combined treatment with peptide (MDRAB 12035 [5]; [14]) | Linezolid MIC during combined treatment with peptide (MDRAB 12035 [5]; [14]) | Vancomycin MIC during combined treatment with peptide (MDRAB 12035 [5]; [14]) | Erythromycin MIC during combined treatment with peptide (MDRAB 12035 [5]; [15]) | Linezolid MIC during combined treatment with peptide (MDRAB 12035 [5]; [15]) | Vancomycin MIC during combined treatment with peptide (MDRAB 12035 [5]; [15]) | Peptide MIC during treatment with erythromycin (MDRAB 12035 [6]; [23]) | Peptide MIC during treatment with linezolid (MDRAB 12035 [6]; [17]) | Peptide MIC during treatment with erythromycin (A. baumannii [7]; [23]) | Peptide MIC during treatment with linezolid (A. baumannii [7]; linezolid […] (Conc./MIC 1)) | Peptide MIC during treatment with vancomycin (A. baumannii [7]; [19])
